Here are results for 2 compounds from PubChem BioAssay (NCI).

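Test compounds were applied to cells in 96-well plates for 48 hours at 5 doses. The concentration for full growth arrest is given as TGI.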

The assay deals with XF 498 CNS. The assay is described as follows: inhibition of tumour cell growth, NCI panel, 48 h.

With `NC(=S)N/N=C1\CC(c2ccccc2)Nc2ccccc21` (configuration not stated), the TGI is 35.2 µM.
The compound `CC(=O)C(N=NC1CCC(S(=O)(=O)NB2N=CS2)CC1)C(=O)Nc1ccccc1C` (configuration not stated) showed a TGI of 33.6 µM.
